According to patent US6218378A, “Anti-tumor agents comprising pyridyl-substituted metal-diphosphine complex” (priority 1994, dated 2001):
Several values for one entry are separate records, joined by “and”; a condition that tells them apart may be missing. Equal values may be shown once. Read-outs that look alike come from different tables or passages of the source.

Experiments:
[1] = system: HeLa-S1a; conditions: ID37 data from Ying Dong et al. submitted for publication; cited from earlier work
[2] = system: CI-80-13S; conditions: ID37 data from Ying Dong et al. submitted for publication; cited from earlier work
[3] = system: JAM; conditions: ID37 data from Ying Dong et al. submitted for publication; cited from earlier work
[4] = system: 41M-cisR; conditions: data from Kelland et al., 1992; cited from earlier work
[5] = system: SKOV-3; conditions: data from McKeage et al., 1994; cited from earlier work
[6] = system: CH1-cisR; conditions: data from Kelland et al., 1992; cited from earlier work
[7] = system: HeLa; conditions: ID37 data from Ying Dong et al. submitted for publication; cited from earlier work
[8] = system: Rhodamine 123 uptake; conditions: cells treated with cisplatin; cited from earlier work
[9] = system: CH1; conditions: data from Kelland et al., 1992; cited from earlier work
[10] = system: 41M; conditions: data from Kelland et al., 1992; cited from earlier work
[11] = system: mitochondria of carcinoma derived cells; conditions: carcinoma derived versus untransformed cells; cited from earlier work
[12] = from Chen in Cancer Cells 1; cited from earlier work
[13] = system: 41M, 41M-cisR, SKOV-3, CH1, CH1-cisR; assay: growth inhibition of cisplatin-sensitive and -resistant ovarian cancer cell lines (Table 2, FIG. 5); format: cell-based, human
From the text: The sensitive CH1 cell line was established from a patient with drug-sensitive disease and its resistant variant (CH1-cisR) was generated by prolonged in vitro exposure to cisplatin during which it acquired more efficient DNA repair as described in Kelland et al., 1992, Cancer Research 52 3857-3864. The sensitive 41M cell line was also established from a patient with a sensitive tumor and its resistant variant (41M-cisR) was generated in the same way but acquired decreased uptake across the cell membrane (Kelland et al., 1992, supra). The intrinsically-resistant SKOV-3 ovarian carcinoma cell line has high glutathione levels as described in Mistry et al., 1991, Brit. J. Cancer 64 215-220 and reduced levels of bi-functional cisplatin-DNA lesions as described in McKeage et al., 1994, Brit. J. Cancer 69 1-7. The characteristics of the cell line pairs CH1/CH1 cisR, 41M/41McisR and 41M/SKOV3 are described in Table 3.
(§1) The cytotoxicity assay used sulforhodamine B which stains the basic amino acids. Cells (5000 or 2500 for SKOV-3) were seeded into 96 well microtitre plates (Linbro, Flow Laboratories Inc., USA) in 0.1 ml of medium. After an overnight incubation, the metal phosphine compounds were dissolved in 0.9% NaCl or ethanol and diluted with medium, were added at concentrations ranging from 0.005 to 50 μM to quadruplicate wells. After 96 hrs incubation, the medium was removed and cells were fixed in 0.2 ml of cold 10% (w/v) trichloroacetic acid (May & Baker Ltd., Dagenham, England) for 30 mins at 4° C. The plates were washed five times with tap water. Then 0.1 ml of 0.4% (w/v) sulforhodamine B (Sigma Chemical Co., St. Louis, USA) dissolved in 1% acetic acid (Ajax Chemicals, Australia) was added to the wells and left to stand at room temperature for 15 mins. The plates were then washed five times with 1% acetic acid and left to dry overnight. The next morning, 0.1 ml of 10 mM Tris buffer (Sigma Chemical Co., St. Louis, USA) was then added to each plate to solubilise the dye. Absorbance was read at a wavelength of 570 nm using a 96 well plate reader Dynatech MR 5000 plate reader. Absorbance of treatment cells was expressed as a percentage of positive (drug-free) controls. The results were plotted as percentage growth versus drug concentration. The drug concentration resulting in a 50% growth inhibition was termed the IC50. The passage numbers used for the cytotoxicity assay from each cell line were, CH1 passages 50-58, CH1 cis-R passages 77-83, 41M passages 50-63, 41M cisR 81-92 and SKOV-3 passages 106-128.

[14] = system: CH1-cisR; assay: cytotoxicity assay, sulforhodamine B; format: cell-based, human; conditions: Homo sapiens, CH1cisR, 96 hrs, mean ± SD or individual values when n<3
Experimental: (§2) In Table 2, reference is made to cell lines 41M, 41M-cisR, SKOV-3, CH1 and CH1-cisR.
(§3) J. Cancer 69 1-7. The characteristics of the cell line pairs CH1/CH1 cisR, 41M/41McisR and 41M/SKOV3 are described in Table 3.
as §1, with “concentration.” for “concentration. The drug concentration resulting in a 50% growth inhibition was termed the IC50. The passage numbers used for the cytotoxicity assay from each cell line were, CH1 passages 50-58, CH1 cis-R passages 77-83, 41M passages 50-63, 41M cisR 81-92 and SKOV-3 passages 106-128.”

[15] = system: 41M-cisR; assay: cytotoxicity assay, sulforhodamine B; format: cell-based, human; conditions: 96 hrs, mean ± SD or individual values when n<3
Experimental: as §2, §3
as §1, with “concentration.” for “concentration. The drug concentration resulting in a 50% growth inhibition was termed the IC50. The passage numbers used for the cytotoxicity assay from each cell line were, CH1 passages 50-58, CH1 cis-R passages 77-83, 41M passages 50-63, 41M cisR 81-92 and SKOV-3 passages 106-128.”

[16] = system: CH1; assay: cytotoxicity assay, sulforhodamine B; format: cell-based, human; conditions: Homo sapiens, 96 hrs, mean ± SD or individual values when n<3
Experimental: as §2, §3
as §1, with “concentration.” for “concentration. The drug concentration resulting in a 50% growth inhibition was termed the IC50. The passage numbers used for the cytotoxicity assay from each cell line were, CH1 passages 50-58, CH1 cis-R passages 77-83, 41M passages 50-63, 41M cisR 81-92 and SKOV-3 passages 106-128.”

[17] = system: 41M; assay: cytotoxicity assay, sulforhodamine B; format: cell-based, human; conditions: 96 hrs, mean ± SD or individual values when n<3
Experimental: as §2, §3
as §1, with “concentration.” for “concentration. The drug concentration resulting in a 50% growth inhibition was termed the IC50. The passage numbers used for the cytotoxicity assay from each cell line were, CH1 passages 50-58, CH1 cis-R passages 77-83, 41M passages 50-63, 41M cisR 81-92 and SKOV-3 passages 106-128.”

[18] = system: SKOV-3; assay: cytotoxicity assay, sulforhodamine B; format: cell-based, human; conditions: mean ± SD or individual values when n<3
Experimental: as §2, §3
as §1, with “concentration.” for “concentration. The drug concentration resulting in a 50% growth inhibition was termed the IC50. The passage numbers used for the cytotoxicity assay from each cell line were, CH1 passages 50-58, CH1 cis-R passages 77-83, 41M passages 50-63, 41M cisR 81-92 and SKOV-3 passages 106-128.”

[19] = system: MM96; assay: cell survival after drug treatment ([methyl-3H]-thymidine); format: cell-based, human; conditions: MM96L; mean ± SD or individual values when n<3; 5-7 days
From the text: (§4) In FIGS. 1-4 and Table 1, reference is made to the cell lines HeLa, HeLa-S1a, JAM, CI-80-13S and MM96.
(§5) The origins of the human melanoma cell line MM96 has been described in Whitehead et al., 1973, Pigment Cell 1 383-389. The cell line JAM is described in Ward et al., 1987, Cancer Res. 47 2662-2667. The origin of the ovarian tumour line CI-80-13S has been described in Bertoncello et al., 1985, Aust. J. Exp. Biol. Med. Sci. 63 241-243. The origin of the cervical carcinoma cell line HeLa has been described in Maynard et al., 1986, Cancer Res. 46 5009-5093. The subclone HeLa-S1a was derived by stably transfecting HeLa with PAI-2 cDNA described in Schleuning et al., 1987, Mol. Cell. Biol. 7 4564-4567 in the sense orientation under the control of the cyto-megalovirus (CMV) promoter. The stably infected subclone was isolated following G418 selection and expression of the PAI-2 transgene characterised by immunoblot analysis and quantitated by ELISA. All of these cell lines have been used before for carrying out cell survival assays referred to in FIGS. 1-4. Cells were cultured at 37° in 5% CO2 /air in Roswell Park Memorial Institute medium 1640 containing 5% foetal calf serum, 100 μg/ml streptomycin, 100 IU/ml penicillin, 1 mM pyruvate, 50 μM nicotinamide and 3 mM HEPES.
(§6) Cells were seeded in microtitre plates (lowest number for fastest growing cells: 1000 HeLa, 2000 MM96, […] CI-80-13S cells per 6 mm well in 100 μl), normally but not necessarily allowed to attach overnight, then 5 dilutions of the drug were added to duplicate wells. After an overnight incubation to equilibrate the pH, the lids were quickly taped around the edge to prevent evaporation. The plates were incubated for 5-7 days, until the controls were nearly confluent. Cell growth/morphology was scored at each dose visually (inverted microscope). The medium was then replaced by 50 μl fresh medium containing 2 u/Ci/ml [methyl-3H]-thymidine (5 Ci/mmol; Radiochemical Centre, Amersham, Bucks., U.K.) and incubated for 2-4 hr. The cells were washed with PBS (0.1 M NaCl, 50 mM phosphate, pH 7.2), detached with 100 μl of PBS containing 0.2 mg/ml trypsin and 10 mM EDTA, and washed onto a glass fibre GF/a filter mat with water using a cell harvester. Later, wells were checked under the microscope to ensure complete detachment and washout. Radioactivity was determined in an LKB Beta Plate counter and the results plotted as log % control cpm versus dose. The ID50 (dose required to give 50% survival) was interpolated from this survival curve.

[20] = system: CI-80-13S; assay: as above; format: cell-based, human; conditions: CI-80-13S; mean ± SD or individual values when n<3; 5-7 days
From the text: as §4, §5, §6

[21] = system: HeLa; assay: as above; format: cell-based, human; conditions: HeLa; mean ± SD or individual values when n<3; 5-7 days
From the text: as §4, §5, §6

[22] = system: JAM; assay: as above; format: cell-based, human; conditions: mean ± SD or individual values when n<3, 5-7 days
From the text: as §4, §5, §6

[23] = system: HeLa-S1a; assay: as above; format: cell-based, human; conditions: HeLa-S1a; mean ± SD or individual values when n<3; 5-7 days
From the text: as §4, §5, §6

[24] = system: CI-80-13S vs JAM; HeLa-S1a vs HeLa; assay: relative cytotoxic potency in cisplatin-resistant and non-resistant cells (Table 1); format: cell-based, human; conditions: CI80-13-S vs JAM; HeLaS1a vs HeLa
From the text: as §5, with “All of these cell lines have been used before for carrying out cell survival assays referred to in FIGS. 1-4. Cells were cultured at 37° in 5% CO2 /air in Roswell Park Memorial Institute medium 1640 containing 5% foetal calf serum, 100 μg/ml streptomycin, 100 IU/ml penicillin, 1 mM pyruvate, 50 μM nicotinamide and 3 mM HEPES.” left out
Cells were seeded in microtitre plates (lowest number for fastest growing cells: 1000 HeLa, 2000 MM96, […] CI-80-13S cells per 6 mm well in 100 μl), normally but not necessarily allowed to attach overnight, then 5 dilutions of the drug were added to duplicate wells. […] Cell growth/morphology was scored at each dose visually (inverted microscope). […] Radioactivity was determined in an LKB Beta Plate counter and the results plotted as log % control cpm versus dose. […]

[25] = system: four human tumour cell lines (MM96, HeLa, CI-80-13S, HeLa-S1a); assay: cytotoxicity against four human tumour cell lines in vitro (FIGS. 3 and 4); format: cell-based
From the text: as §5, §6
We have tested the following compounds of formula (III) against the four human tumour cell lines described above, i.e.: […]

## N.N.[Cl][Pt][Cl] [Cisplatin]
[1]
  ID37: 0.62 ± 0.08 µM
[2]
  ID37: 4.17 ± 0.5 µM
[3]
  ID37: 0.83 ± 0.3 µM
[4]
  IC50: 1200 ± 400 nM
[5]
  IC50: 2100 nM
[6]
  IC50: 710 ± 200 nM
[7]
  ID37: 0.29 ± 0.04 µM
[8]
  Rhodamine 123 uptake: Rhodamine 123 uptake increases
[9]
  IC50: 110 ± 10 nM
[10]
  IC50: 260 ± 100 nM

## CCN(CC)c1ccc2c(-c3ccccc3C(=O)O)c3ccc(=[N+](CC)CC)cc-3oc2c1 [Rhodamine, reference compound]
[1]
  ID37: 0.58 ± 0.08 µM
[11]
  accumulation in mitochondria: accumulate in the mitochondria of most carcinoma derived cells more rapidly than in most untransformed cells
[12]
  partition co-efficient: 0.34
[2]
  ID37: 0.105 ± 0.026 µM
[3]
  ID37: 0.90 ± 0.03 µM
[13]; 41M/41M-cisR and CH1/CH1-cisR pairs
  sensitivity of cisplatin resistant cells versus non-resistant cells: the cisplatin resistant cells are more sensitive to Rhodamine than the nonresistant cells
[7]
  ID37: 2.73 ± 0.28 µM
[14]
  IC50: 500 nM
[15]; Homo sapiens, 41McisR
  IC50: 1000 nM
[16]
  IC50: 900 nM
[17]; Homo sapiens
  IC50: 3000 nM
[18]; Homo sapiens, SK-OV-3, 96 hrs
  IC50: 1000 nM

## [Cl-].[Cl-].c1ccc([P+]2(c3ccccn3)CC[P+](c3ccccn3)(c3ccccn3)[Au-3]23[P+](c2ccccn2)(c2ccccn2)CC[P+](c2ccccn2)(c2ccccn2)[Au-3]2([P+](c4ccccn4)(c4ccccn4)CC[P+]2(c2ccccn2)c2ccccn2)[P+](c2ccccn2)(c2ccccn2)CC[P+]3(c2ccccn2)c2ccccn2)nc1 [[Au2 (d2pype)4]Cl2]
[19]
  IC50: 90 nM
[20]
  IC50: 60 ± 30 nM
[21]
  IC50: 240 ± 100 nM
[22]
  IC50: 100 nM and 390 nM
[23]
  IC50: 60 nM
[24]
  sensitivity of cisplatin-resistant cell lines versus non-resistant cells: more sensitive
[25]; all four cell lines
  cytotoxicity (FIGS. 3 and 4): cytotoxic to all four cell lines
[25]; compared with formula (I) or (V), R=4-pyridyl and 3-pyridyl
  selectivity against the cisplatin-resistant lines: do not show the same selectivity
[13]
  selectivity and cytotoxicity in ovarian cancer cell-lines (FIG. 5): cytotoxic to the 41M pair and the resistant SKOV-3
[15]
  IC50: 600 nM
[17]
  IC50: 700 nM
[18]; 96 hrs
  IC50: 1100 nM
